Test results from patent US9156810B2, “Treatment of inflammatory bowel disease” (ALLERGAN, INC., priority 2003, dated 2015).
pEC50, pIC50: −log10 of the molar value.

Tests used:
hEP2 [1] = biological target: T1, hEP2 (Homo sapiens (Human), UniProt P43116); experiment: Radioligand binding ([3H]PGE2), HEK-293 cell membranes expressing EP2 receptor; conditions: top number in Table 2
Method: (§1) HEK-293 cells stably expressing the human or feline FP receptor, or EP1, EP2, EP3, or EP4 receptors were washed with TME buffer, scraped from the bottom of the flasks, and homogenized for 30 sec using a Brinkman PT 10/35 polytron. TME buffer was added to achieve a final 40 ml volume in the centrifuge tubes (the composition of TME is 100 mM TRIS base, 20 mM MgCl2, […]; 10N HCl is added to achieve a pH of 7.4).
(§2) The cell homogenate was centrifuged at 19000 r.p.m. for 20 min at 4° C. using a Beckman Ti-60 rotor. The resultant pellet was resuspended in TME buffer to give a final 1 mg/ml protein concentration, as determined by Biorad assay. Radioligand binding competition assays vs. [^3H-]17-phenyl PGF2α, (5 nM) were performed in a 100 μl volume for 60 min. Binding reactions were started by adding plasma membrane fraction. The reaction was terminated by the addition of 4 ml ice-cold TRIS-HCl buffer and rapid filtration through glass fiber GF/B filters using a Brandel cell harvester. The filters were washed 3 times with ice-cold buffer and oven dried for one hour. Non-specific binding was determined with 10 uM unlabeled 17-phenyl PGF2α.
(§3) [^3H-] PGE2 (5 nM; specific activity 180 Ci mmol) was used as the radioligand for EP receptors. Binding studies employing EP1, EP2, EP3, EP4 were performed in duplicate in at least three separate experiments. A 200 μl assay volume was used. Incubations were for 60 min at 25° C. and were terminated by the addition of 4 ml of ice-cold 50 mM TRIS-HCl, followed by rapid filtration through Whatman GF/B filters and three additional 4 ml washes in a cell harvester (Brandel). Non-specific binding determined with 10^−5M of unlabeled PGE2.

hEP4 [2] = biological target: T2, hEP4 (Homo sapiens (Human), UniProt P35408); experiment: Radioligand binding ([3H]PGE2), HEK-293 cell membranes expressing EP4 receptor; conditions: top number in Table 2
T2 sequence (P35408 whole entry, looked up): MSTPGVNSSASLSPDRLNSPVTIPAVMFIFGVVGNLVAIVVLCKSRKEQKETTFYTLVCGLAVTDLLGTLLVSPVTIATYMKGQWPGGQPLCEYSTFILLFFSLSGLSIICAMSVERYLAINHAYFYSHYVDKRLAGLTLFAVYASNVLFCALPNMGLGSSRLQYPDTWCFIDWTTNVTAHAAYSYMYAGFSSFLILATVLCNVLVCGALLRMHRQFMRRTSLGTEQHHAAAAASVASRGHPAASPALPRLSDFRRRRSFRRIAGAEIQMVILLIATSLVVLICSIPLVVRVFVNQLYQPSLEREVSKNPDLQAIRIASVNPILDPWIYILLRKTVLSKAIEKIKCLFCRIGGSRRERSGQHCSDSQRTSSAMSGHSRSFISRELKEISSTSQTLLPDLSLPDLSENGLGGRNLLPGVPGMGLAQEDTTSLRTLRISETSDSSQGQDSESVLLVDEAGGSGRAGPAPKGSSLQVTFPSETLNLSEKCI
Method: as §1, §2, §3

hIP = hIP (Homo sapiens (Human), UniProt P43119); experiment: Table 2 top number, hIP (radioligand binding per footnote); conditions: top number in Table 2
Sequence of hIP (P43119 whole entry): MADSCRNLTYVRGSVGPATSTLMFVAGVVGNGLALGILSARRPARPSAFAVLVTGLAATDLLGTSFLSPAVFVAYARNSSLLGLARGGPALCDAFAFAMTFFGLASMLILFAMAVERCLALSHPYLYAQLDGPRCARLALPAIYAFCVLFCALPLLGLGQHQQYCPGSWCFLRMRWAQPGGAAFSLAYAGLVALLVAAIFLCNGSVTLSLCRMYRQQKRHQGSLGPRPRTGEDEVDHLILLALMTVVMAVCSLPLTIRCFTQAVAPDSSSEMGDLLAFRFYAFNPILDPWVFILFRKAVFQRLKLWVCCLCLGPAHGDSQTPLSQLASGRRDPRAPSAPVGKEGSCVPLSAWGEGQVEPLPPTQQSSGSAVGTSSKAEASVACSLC

hEP4 [3] = biological target: T2, hEP4; experiment: FLIPR calcium signal, HEK-293(EBNA) cells expressing hEP4/Gqs5; format: cell-based; conditions: bottom number in Table 2, read-out: hEP4 functional EC50
Method: (§4) HEK-293(EBNA) cells, stably expressing one type or subtype of recombinant human prostaglandin receptors (prostaglandin receptors expressed: hDP/Gqs5; hEP1; hEP2/Gqs5; hEP3A/Gqi5; hEP4/Gqs5; hFP; hIP; hTP), were cultured in 100 mm culture dishes in high-glucose DMEM medium containing 10% fetal bovine serum, 2 mM 1-glutamine, 250 μg/ml geneticin (G418) and 200 μg/ml hygromycin B as selection markers, and 100 units/ml penicillin G, 100 μg/m streptomycin and 0.25 μg/m amphotericin B.
(§5) Cells were seeded at a density of 5×10^4 cells per well in Biocoat® Poly-D-lysine-coated black-wall, clear-bottom 96-well plates (Becton-Dickinson) and allowed to attach overnight in an incubator at 37° C. Cells were then washed two times with HBSS-HEPES buffer (Hanks Balanced Salt Solution without bicarbonate and phenol red, 20 mM HEPES, pH 7.4) using a Denley Cellwash plate washer (Labsystems). After 45 minutes of dye-loading in the dark, using the calcium-sensitive dye Fluo-4 AM at a final concentration of 2 μM, plates were washed four times with HBSS-HEPES buffer to remove excess dye leaving 100 μl in each well. Plates were re-equilibrated to 37° C. for a few minutes.
Cells were excited with an Argon laser at 488 nm, and emission was measured through a 510-570 nm bandwidth emission filter (FLIPR™, Molecular Devices, Sunnyvale, Calif.). […] The peak increase in fluorescence intensity was recorded for each well. On each plate, four wells each served as negative (HBSS-HEPES buffer) and positive controls (standard agonists: BW245C (hDP); PGE2 (hEP1; hEP2/Gqs5; hEP3A/Gqi5; hEP4/Gqs5); PGF2 (hFP); carbacyclin (hIP); U-46619 (hTP), depending on receptor). The peak fluorescence change in each drug-containing well was then expressed relative to the controls.
(§6) Compounds were tested in a high-throughput (HTS) or concentration-response (CoRe) format. In the HTS format, forty-four compounds per plate were examined in duplicates at a concentration of 10^−5 M. To generate concentration-response curves, four compounds per plate were tested in duplicates in a concentration range between 10^−5 and 10^−11 M. The duplicate values were averaged.

hTP = hTP (Homo sapiens (Human), UniProt P21731); experiment: Table 2 top number, hTP (radioligand binding per footnote); conditions: top number in Table 2
Sequence of hTP (P21731 whole entry): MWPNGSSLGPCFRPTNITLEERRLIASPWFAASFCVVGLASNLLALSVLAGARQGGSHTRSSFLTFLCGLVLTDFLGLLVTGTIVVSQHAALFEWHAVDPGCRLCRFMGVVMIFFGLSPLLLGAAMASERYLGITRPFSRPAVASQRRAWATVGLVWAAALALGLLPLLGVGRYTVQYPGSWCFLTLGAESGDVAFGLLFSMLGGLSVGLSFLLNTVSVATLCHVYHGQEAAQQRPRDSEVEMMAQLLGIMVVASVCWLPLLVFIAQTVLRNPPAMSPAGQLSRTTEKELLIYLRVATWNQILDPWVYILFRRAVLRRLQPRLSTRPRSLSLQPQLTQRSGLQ

hEP1 = hEP1 (Homo sapiens (Human), UniProt P34995); experiment: Radioligand binding ([3H]PGE2), HEK-293 cell membranes expressing EP1 receptor; conditions: top number in Table 2
Sequence of hEP1 (P34995 whole entry): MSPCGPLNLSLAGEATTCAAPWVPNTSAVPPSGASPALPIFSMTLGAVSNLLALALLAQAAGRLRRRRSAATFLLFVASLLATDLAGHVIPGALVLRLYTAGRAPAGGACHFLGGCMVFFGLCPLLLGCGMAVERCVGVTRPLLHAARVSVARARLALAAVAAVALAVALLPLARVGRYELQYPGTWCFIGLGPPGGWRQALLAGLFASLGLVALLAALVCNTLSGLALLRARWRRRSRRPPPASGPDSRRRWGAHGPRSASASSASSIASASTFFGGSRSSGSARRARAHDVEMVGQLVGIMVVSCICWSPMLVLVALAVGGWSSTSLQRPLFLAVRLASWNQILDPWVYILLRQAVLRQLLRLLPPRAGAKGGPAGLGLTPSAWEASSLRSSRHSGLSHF
Method: as §1, §2, §3

hEP3D = hEP3D (Homo sapiens (Human), UniProt P43115); experiment: Radioligand binding ([3H]PGE2), HEK-293 cell membranes expressing EP3 receptor; conditions: top number in Table 2
Sequence of hEP3D (P43115 other isoform, or with tags, fused parts or gaps): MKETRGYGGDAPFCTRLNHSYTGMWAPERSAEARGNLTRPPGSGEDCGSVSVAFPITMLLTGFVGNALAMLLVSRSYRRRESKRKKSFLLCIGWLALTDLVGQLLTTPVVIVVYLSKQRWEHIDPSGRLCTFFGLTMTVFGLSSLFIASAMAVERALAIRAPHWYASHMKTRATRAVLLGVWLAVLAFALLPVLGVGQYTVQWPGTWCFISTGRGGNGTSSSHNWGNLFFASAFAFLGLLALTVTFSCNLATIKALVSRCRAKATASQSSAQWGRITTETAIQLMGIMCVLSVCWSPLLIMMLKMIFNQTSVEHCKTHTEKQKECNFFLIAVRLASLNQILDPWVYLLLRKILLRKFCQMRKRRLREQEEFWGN
Method: as §1, §2, §3

hEP3A = hEP3A (Homo sapiens (Human), UniProt P43115); experiment: FLIPR calcium signal, HEK-293(EBNA) cells expressing hEP3A/Gqi5; format: cell-based; conditions: for pEC50: bottom number in Table 2, read-out: hEP3A functional EC50
Sequence of hEP3A (P43115 whole entry): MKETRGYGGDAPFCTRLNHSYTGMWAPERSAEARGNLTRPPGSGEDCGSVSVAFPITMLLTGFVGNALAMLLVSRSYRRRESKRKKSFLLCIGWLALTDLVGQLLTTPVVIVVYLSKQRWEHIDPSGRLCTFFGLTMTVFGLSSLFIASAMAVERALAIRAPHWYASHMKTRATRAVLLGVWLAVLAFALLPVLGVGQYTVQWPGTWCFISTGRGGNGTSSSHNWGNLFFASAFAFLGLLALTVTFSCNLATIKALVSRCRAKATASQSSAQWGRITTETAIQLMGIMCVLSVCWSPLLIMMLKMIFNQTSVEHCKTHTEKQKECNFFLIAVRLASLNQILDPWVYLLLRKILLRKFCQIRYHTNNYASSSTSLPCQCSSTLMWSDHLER
Method: as §4, §5
Cells were excited with an Argon laser at 488 nm, and emission was measured through a 510-570 nm bandwidth emission filter (FLIPR™, Molecular Devices, Sunnyvale, Calif.). Drug solution was added in a 50 μl volume to each well to give the desired final concentration. The peak increase in fluorescence intensity was recorded for each well. On each plate, four wells each served as negative (HBSS-HEPES buffer) and positive controls (standard agonists: BW245C (hDP); PGE2 (hEP1; hEP2/Gqs5; hEP3A/Gqi5; hEP4/Gqs5); PGF2 (hFP); carbacyclin (hIP); U-46619 (hTP), depending on receptor). The peak fluorescence change in each drug-containing well was then expressed relative to the controls.
as §6, with “averaged. In either, HTS or CoRe format each compound was tested on at least 3 separate plates using cells from different passages to give an n≧3.” for “averaged.”

hDP = hDP (Homo sapiens (Human), UniProt Q13258); experiment: Table 2 top number, hDP (radioligand binding per footnote); conditions: top number in Table 2
Sequence of hDP (Q13258 whole entry): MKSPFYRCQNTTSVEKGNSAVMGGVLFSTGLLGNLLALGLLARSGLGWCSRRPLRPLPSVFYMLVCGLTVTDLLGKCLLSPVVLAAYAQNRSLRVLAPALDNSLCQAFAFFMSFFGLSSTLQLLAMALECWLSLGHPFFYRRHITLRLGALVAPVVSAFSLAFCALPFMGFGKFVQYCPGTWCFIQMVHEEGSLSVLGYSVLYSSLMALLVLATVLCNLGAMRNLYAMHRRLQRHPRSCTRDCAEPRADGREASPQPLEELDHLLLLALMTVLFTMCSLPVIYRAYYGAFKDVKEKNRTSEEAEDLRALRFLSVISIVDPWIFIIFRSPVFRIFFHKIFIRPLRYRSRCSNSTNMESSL

hEP2 [4] = biological target: T1, hEP2; experiment: FLIPR calcium signal, HEK-293(EBNA) cells expressing hEP2/Gqs5; format: cell-based; conditions: bottom number in Table 2, read-out: hEP2 functional EC50
Method: as §4
Cells were seeded at a density of 5×10^4 cells per well in Biocoat® Poly-D-lysine-coated black-wall, clear-bottom 96-well plates (Becton-Dickinson) and allowed to attach overnight in an incubator at 37° C. Cells were then washed two times with HBSS-HEPES buffer (Hanks Balanced Salt Solution without bicarbonate and phenol red, 20 mM HEPES, pH 7.4) using a Denley Cellwash plate washer (Labsystems). […]
Cells were excited with an Argon laser at 488 nm, and emission was measured through a 510-570 nm bandwidth emission filter (FLIPR™, Molecular Devices, Sunnyvale, Calif.). […] The peak increase in fluorescence intensity was recorded for each well. […] The peak fluorescence change in each drug-containing well was then expressed relative to the controls. […]

T1 sequence (P43116 whole entry): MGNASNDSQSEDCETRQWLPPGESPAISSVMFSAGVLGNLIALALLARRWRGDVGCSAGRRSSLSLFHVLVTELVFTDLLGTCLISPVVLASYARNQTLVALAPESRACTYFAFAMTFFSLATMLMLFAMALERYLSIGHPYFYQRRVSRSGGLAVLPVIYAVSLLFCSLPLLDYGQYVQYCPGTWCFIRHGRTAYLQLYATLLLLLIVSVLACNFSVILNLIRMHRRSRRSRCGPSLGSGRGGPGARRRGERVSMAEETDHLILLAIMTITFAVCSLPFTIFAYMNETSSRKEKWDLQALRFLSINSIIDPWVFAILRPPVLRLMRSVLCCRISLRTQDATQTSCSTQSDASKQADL

Row | SMILES | hEP2 radioligand binding IC50 (hEP2 [1]) [nM] | pIC50 (hEP4 [2]) | pEC50 (hEP4 [3]) | pIC50 (hEP1) | pEC50 (hEP3A) | pIC50 (hEP3D) | pIC50 (hTP) | also measured
1 | COC(=O)CSCCCS[C@H]1C(=O)C(C)(C)[C@@H](O)[C@@H]1/C=C/C(O)CCc1sc2ccccc2c1Cl (single isomer, unassigned) [Compound 21] | > 10000 | 7.01 | – | – | – | – | – | –
2 | CC1(C)C(=O)[C@H](CC#CCCCC(=O)O)[C@@H](/C=C/C(O)CCc2sc3ccccc3c2Cl)[C@@H]1O (single isomer, unassigned) [Compound 36] | – | 6.70 | 7.18 | – | – | – | – | hIP radioligand binding IC50 (hIP): > 10000 nM
3 | CC1(C)C(=O)[C@H](CC#CCCCC(=O)O)[C@@H](/C=C/C(O)CCc2sc3ccccc3c2Cl)[C@@H]1O (single isomer, unassigned) [Compound 37] | – | 7.00 | 7.49 | – | – | – | – | hIP radioligand binding IC50 (hIP): > 10000 nM
4 | CC1(C)C(=O)[C@H](C/C=C\CCCC(=O)O)[C@@H](/C=C/C(O)CCc2sc3ccccc3c2Cl)[C@@H]1O (single isomer, unassigned) [Compound 41] | > 10000 | 7.70 | – | – | – | – | – | hTP radioligand binding IC50 (hTP): > 10000 nM
5 | CC1(C)C(=O)[C@H](C/C=C\CCCC(=O)O)[C@@H](/C=C/C(O)Cc2ccccc2)[C@@H]1O (single isomer, unassigned) [Compound 46] | > 10000 | 8.40 | 9.40 | 6.54 | 6.23 | – | – | hEP3D radioligand binding IC50 (hEP3D): > 10000 nM
6 | COC(=O)CCC/C=C\C[C@H]1C(=O)C(C)(C)[C@@H](O)[C@@H]1/C=C/C(O)CCc1ccccc1 (single isomer, unassigned) [Compound 50] | – | 5.62 | 5.50 | 6.20 | – | 5.18 | – | hTP radioligand binding IC50 (hTP): > 10000 nM; hEP3A functional EC50 (hEP3A; bottom number in Table 2): > 10000 nM
7 | CCCCC[C@H](O)/C=C/[C@@H]1[C@@H](CC#CCCCC(=O)O)C(=O)C(C)(C)[C@H]1O [Compound 43, 7-[(1R,4S,5R)-4-Hydroxy-5-((E)-(S)-3-hydroxy-oct-1-enyl)-3,3-dimethyl-2-oxo-cyclopentyl]-hept-5-ynoic acid] | – | 6.40 | 7.20 | < 5.00 | 7.96 | 5.77 | 7.74 | pIC50 (hIP): 5.40
8 | CCCCC[C@H](O)/C=C/[C@@H]1[C@@H](C/C=C\CCCC(=O)O)C(=O)C(C)(C)[C@H]1O [Compound 44, (Z)-7-[(1R,4S,5R)-4-Hydroxy-5-((E)-(S)-3-hydroxy-oct-1-enyl)-3,3-dimethyl-2-oxo-cyclopentyl]-hept-5-enoic acid] | – | 8.26 | 9.70 | 6.11 | 8.34 | 6.52 | 7.74 | pIC50 (hEP2 [1]): 5.82; hDP radioligand binding IC50 (hDP): > 10000 nM; pIC50 (hIP): 6.55; pEC50 (hEP2 [4]): 6.03
9 | CCCCC[C@H](O)/C=C/[C@@H]1[C@@H](C/C=C\CCCC(=O)OC)C(=O)C(C)(C)[C@H]1O [Compound 45, (Z)-7-[(1R,4S,5R)-4-Hydroxy-5-((E)-(S)-3-hydroxy-oct-1-enyl)-3,3-dimethyl-2-oxo-cyclopentyl]-hept-5-enoic acid methyl ester] | – | 6.40 | 7.29 | – | 6.27 | < 5.00 | 6.20 | –
